According to patent US8834899B2, “Photodynamic therapy-generated mesothelioma vaccine” (The Trustees of the University of Pennsylvania, priority 2006, dated 2014):

Test system: AB1 murine mesothelioma cells
Assay: Clonogenic assay after Photofrin PDT
Type: cell-based
Settings: for % Cell Kill / Clonogenic Results (colonies) / Clonogenic Results, Averaged numbers: Photofrin 24 hours
Experimental: Initial tests were conducted in order to explore the possibility of generating inactivated whole tumor cells from PDT. Three variables were manipulated: Photofrin® incubation time, Photofrin® dosage, and light dosage. Since Photofrin® incubation times may determine cellular uptake—either just within the membrane or further into the cytoplasm—the cells were incubated for either 3-hours or 24-hours, followed by a 3-hour incubation in drug-free media. Second, cells were given a Photofrin dose of either 10 μg/mL or 25 μg/mL. Dosages were determined by consulting both past papers and another PDT research laboratory. Lastly, light dosage was varied. The light source was a Laserscope KTP/YAG laser with a 630 nm Dye Module. […] Laser light dosage was measured in fluence or j/cm^2. Light dosages ranged from 0.125 j/cm^2 to 1.0 j/cm^2.
Later in the study, dose-response curves followed by clonogenic assays, were performed in order to determine appropriate PDT light dosages for complete cell killing. In these tests, cells were incubated for 24-hours and exposed to high light dosages ranging from 1.0 j/cm^2 to 3.0 j/cm^2. The clonogenic assay measured cell plating efficiency and proliferation and involved plating cells at very low concentrations. After one week, resultant colonies that had formed were counted and compared against controls that had not been lit.
All three factors were modified with the intent of producing complete cell death. Cells were incubated in 25 μg/mL of Photofrin® for 3 hours and lit with 2.0 j/cm^2 of light at 630 nm. […] A clonogenic assay was performed to explore the dose-response relationship at this level of light, and the results are summarized in Table 2. For the assay, cells were incubated in 25 μg/mL of Photofrin® for 24 hours and lit with 1.0 to 3.0 j/cm^2 of light. […] After this test, PDT vaccines were generated by incubating cells in 25 μg/mL of Photofrin® for 24 hours and lit with 3.0 j/cm^2 of light.

[1] = 250 cells per plate, 1.5 j/cm^2
[2] = 500 cells per plate, 1.0 j/cm^2
[3] = 500 cells per plate, 1.5 j/cm^2
[4] = 500 cells per plate, 2.0 j/cm^2
[5] = 500 cells per plate, 2.0 j/cm^2 (100 mill), lit at high cell concentration
[6] = 500 cells per plate, 2.5 j/cm^2
[7] = 500 cells per plate, 3.0 j/cm^2
[8] = 500 cells per plate, 3.0 j/cm^2 (100 mill), lit at high cell concentration
[9] = 1000 cells per plate, 1.0 j/cm^2
[10] = 1000 cells per plate, 1.5 j/cm^2
[11] = 1000 cells per plate, 2.0 j/cm^2
[12] = 1000 cells per plate, 2.0 j/cm^2 (100 mill), lit at high cell concentration
[13] = 1000 cells per plate, 2.5 j/cm^2
[14] = 1000 cells per plate, 3.0 j/cm^2
[15] = 1000 cells per plate, 3.0 j/cm^2 (100 mill), lit at high cell concentration

Photofrin
cell kill in clonogenic assay (in words) (25 μg/mL Photofrin 24 hours, all conditions, light 1.0 to 3.0 j/cm^2 at 630 nm): nearly complete cell kill in all conditions
% Cell Kill [1]: 100%
Clonogenic Results (colonies) [1]: 0
Clonogenic Results, Averaged numbers [1]: 0.00
% Cell Kill [2]: 100%
Clonogenic Results (colonies) [2]: 0
Clonogenic Results, Averaged numbers [2]: 0.00
% Cell Kill [3]: 100%
Clonogenic Results (colonies) [3]: 0
Clonogenic Results, Averaged numbers [3]: 0.00
% Cell Kill [4]: 100%
Clonogenic Results (colonies) [4]: 0
Clonogenic Results, Averaged numbers [4]: 0.00
% Cell Kill [5]: 100%
Clonogenic Results (colonies) [5]: 0
Clonogenic Results, Averaged numbers [5]: 0
% Cell Kill [6]: 100%
Clonogenic Results (colonies) [6]: 0
Clonogenic Results, Averaged numbers [6]: 0
% Cell Kill [7]: 100%
Clonogenic Results (colonies) [7]: 0
Clonogenic Results, Averaged numbers [7]: 0
% Cell Kill [8]: 99.67%
Clonogenic Results, Averaged numbers [8]: 0.33
% Cell Kill [9]: 99.85%
Clonogenic Results, Averaged numbers [9]: 0.33
% Cell Kill [10]: 100.00%
Clonogenic Results (colonies) [10]: 0
Clonogenic Results, Averaged numbers [10]: 0.00
% Cell Kill [11]: 99.85%
Clonogenic Results, Averaged numbers [11]: 0.33
% Cell Kill [12]: 100%
Clonogenic Results (colonies) [12]: 0
Clonogenic Results, Averaged numbers [12]: 0
% Cell Kill [13]: 100%
Clonogenic Results (colonies) [13]: 0
Clonogenic Results, Averaged numbers [13]: 0
% Cell Kill [14]: 100%
Clonogenic Results (colonies) [14]: 0
Clonogenic Results, Averaged numbers [14]: 0
% Cell Kill [15]: 99.70%
Clonogenic Results, Averaged numbers [15]: 0.67
